Data set [1] relates to cultured bovine blood-brain barrier endothelial cells. In words: Intracellular sodium (sodium green fluorescence) in cultured blood-brain barrier cells under simulated ischemia-reperfusion. In kind it is cell-based. As to conditions: 100 μM; ischemia 90 mins, reperfusion 30 mins. Here is the method: FIG. 3 is a bar graph of data showing that when cerebral capillary endothelial cells are exposed to ischemic conditions, intracellular sodium concentration increases and remains elevated during reperfusion; the elevation in intracellular sodium is prevented by pharmacological inhibition of the Na/H antiporter. Cultured bovine blood-brain barrier cells were exposed to conditions simulating ischemia and reperfusion, by incubating in 95% N2/5% CO2 without glucose (90 mins) at pH 6.8, followed by room air/5% CO2 with 5.6 mM glucose (30 mins) at pH 7.4, respectively. […] The rise in intracellular sodium observed during reperfusion was prevented by inhibiting Na/H exchange (100 μM dimethylamiloride, DMA). *P<0.05. Values are mean±SD. […] Intracellular sodium was measured with fluorescent imaging, using sodium green. […]
Cultured bovine blood-brain barrier endothelial cells were exposed to conditions simulating ischemia and reperfusion as described in Example 2. Sodium fluorescence is measured in cultured bovine blood-brain barrier endothelial cells under the following conditions: 1) control (120 minutes), 2) simulated ischemia (120 minutes), 3) simulated ischemia (90 minutes) followed by simulated reperfusion (30 minutes), 4) simulated ischemia/reperfusion (90/30 minutes), in the presence of an inhibitor (dimethylamiloride, 100 μM) of Na/H exchange. […]

The test system is the same in data set [2]. As to the kind of experiment: Intracellular calcium (Fluo-4 fluorescence) in cultured blood-brain barrier cells under simulated ischemia-reperfusion. Format: cell-based. The following applies: 100 μM DMA (Na/H antiport inhibition), listed as DMA. Here is the method:
FIG. 4 is a bar graph of data showing that when cerebral capillary endothelial cells are exposed to ischemic conditions, intracellular calcium concentration increases and remains elevated during reperfusion; the elevation in intracellular calcium is prevented by pharmacological inhibition of the Na/H antiporter. Cultured bovine blood-brain barrier cells were treated as described above (FIG. 2). […] The rise in intracellular calcium observed during reperfusion was prevented by inhibiting Na/H antiport (100 μM DMA). *P<0.05 compared to control. +P<0.05 compared to reperfusion. Values are mean±SD. Intracellular calcium was measured with fluorescent imaging, using Fluo-4.
FIG. 5 is a bar graph of data showing that when cerebral capillary endothelial cells are exposed to ischemic conditions, intracellular calcium concentration increases and remains elevated during reperfusion; the elevation in intracellular calcium is prevented by pharmacological inhibition of reverse movement of the Na/Ca exchanger. Cultured bovine blood-brain barrier cells were treated as described above (FIG. 2). […] The rise in intracellular calcium observed during reperfusion was prevented by inhibiting reverse movement of Na/Ca exchange (20 μM KB-R7943). *P<0.05 compared to control. +P<0.05 compared to reperfusion. Values are mean±SD. Intracellular calcium was measured with fluorescent imaging, using Fluo-4. […]

In data set [3] the test system is caspase 3 activity in cultured bovine blood-brain barrier endothelial cells. As to the kind of experiment: Caspase 3 activity in cultured blood-brain barrier cells under simulated ischemia-reperfusion. The following applies: 100 μM; 30 mins ischemia, 24 hours reperfusion; P<0.05 from I/Rep. Format: cell-based. From the text:
FIG. 6 is a bar graph of data showing that ischemia followed by reperfusion of cultured cerebral capillary endothelial cells results in an increase of caspase 3 activity that is inhibited by an inhibitor of Na/H exchange. Caspase 3 activity is expressed in cultured blood-brain barrier cells exposed to conditions simulating ischemia-reperfusion. […] I/Rep is ischemia plus reperfusion; I/R Na inh is ischemia-reperfusion with inhibitor; I/R Cp inh is ischemia-reperfusion with a specific caspase inhibitor. Values are mean±SD for 3 observations.
Cultured blood-brain barrier cells can be exposed to conditions simulating ischemia and reperfusion, by a method similar to that reported in the literature (25). The precise composition of the incubation medium varies, depending upon the experimental protocols. In general, however, cells are incubated at 37° C. first in an ischemic medium (without glucose, pH 6.8) equilibrated with an atmosphere of 95% N2 and 5% CO2, followed by simulated reperfusion in a control medium (5.6 mM glucose, pH 7.4) equilibrated with room air and 5% CO2. […]
Caspase 3 activity was measured in cultured bovine blood-brain barrier endothelial cells under control conditions (24.5 hours), simulated ischemia (24.5 hours), or ischemia (0.5 hours) followed by reperfusion (24 hours, I/Rep) as described in Example 2. […]

Data set [4] can be described thus: Oxiselect Total Antioxidant Capacity Assay in rat serum (1-9%) in Tris Buffer. The following applies: 0.0625, 0.125, 0.3125 and 0.625 mM, averaged. Here is the method:
(§1) FIGS. 16a and 16b indicate that the antioxidant capacities of γ-Glu-Cys and γ-Glu-D-Cys are the same using an in vitro assay. Antioxidant capacities were measured with the Oxiselect Total Antioxidant Capacity Assay Kit, using uric acid as a standard. […] Values are mean±SE. N=3 separate experiments for the 0.78, 1.56, and 3.13 mM concentrations. N=2 separate experiments for the 0.39 mM concentration. *P=0.047.

The test system of data set [5] is cultured blood-brain barrier endothelial cells. In words: Lactate dehydrogenase (LDH) release from cultured blood-brain barrier endothelial cells under ischemia and reperfusion. Format: cell-based, bovine. The following applies: 1 mM; ischemia 1.5 hrs, reperfusion 3.0 hrs; P<0.05. The source says: FIG. 7 is a bar graph of data showing that the antioxidant gamma-glutamyl cysteine (γ-Glu-Cys) inhibits cell damage to cerebral capillary endothelial cells cultured under conditions of ischemia and reperfusion.
Cultured blood-brain barrier cells can be used as an in vitro cellular model to confirm that Na/Ca exchange may operate in the reverse direction under conditions simulating reperfusion, following transient ischemia. Cerebral capillary endothelial cells are isolated from bovine brain by the method of Meresse et al. (42), or purchased from Cell Systems Corporation (Kirkland, Wash.). Cells are grown and maintained (up to passage 5) on collagen type I- and fibronectin-coated tissue culture flasks in Eagle's minimal essential medium supplemented with 10% fetal bovine serum (54, 62). To form a polarized endothelium, cells are seeded on cluster plate inserts and incubated in the presence of an astrocyte conditioned medium supplemented with cAMP, as previously described (4, 54). […]
Cultured blood-brain barrier endothelial cells were incubated under conditions of ischemia (1.5 hours) followed by reperfusion (3.0 hours), in the presence and absence of γ-glutamyl cysteine (γ-Glu-Cys). Cellular damage was detected by measuring release of lactate dehydrogenase (LDH) into the incubation medium, following treatment. […]

A further data set has as its system Human red blood cells. As to the kind of experiment: Spontaneous hemolysis of human red blood cells (hemoglobin release at 540 nm). In kind it is cell-based. The following applies: 37° C.; for difference in cytoprotective effect, γ-Glu-Cys vs γ-Glu-D-Cys: 1 mM each; for difference in cytoprotective effect, γ-Glu-Cys vs γ-Glu-D-Cys / toxicity (increase of hemolysis): 190 minutes; for spontaneous hemolysis / toxicity (increase of hemolysis): 1 mM; for spontaneous hemolysis: 5% red blood cells, phosphate buffer pH 7.4, 190 minutes. Here is the method:
Human red blood cells (5%) were incubated in isotonic phosphate buffer, pH 7.4 for 190 minutes at 37° C. in the presence or absence of γ-Glu-Cys and γ-Glu-D-Cys, and spontaneous hemolysis was quantified by measuring hemoglobin release spectrophotometrically at 540 nm. […] Values are mean±SE for 4 observations.

Data set [6] can be described thus: Oxiselect Total Antioxidant Capacity Assay in human plasma (90-99%). Here is the method: as §1
A further data set is described as follows: in vitro. As to conditions: rat. In kind it is in vitro ADME. Here is the method: Separate peaks representing the intact peptide and its metabolites are plotted as a function of time. The area under the curve for selected peaks may be measured and compared to appropriate standards to quantify the concentration of γ-Glu-Cys and its metabolites.
Loss of γ-Glu-Cys from the incubation medium, and the appearance of Cys and oxidized γ-Glu-Cys were quantified using HPLC to measure degradation, hydrolysis, and oxidation respectively. The ½-time for degradation of γ-Glu-Cys is 11.3±1.2 mins. Values are mean±SD. N=3 separate experiments.
Loss of γ-Glu-D-Cys from the incubation medium, and the appearance of D-Cys and oxidized γ-Glu-D-Cys were quantified using HPLC to measure degradation, hydrolysis, and oxidation respectively. Values are mean±SD. N=3 separate experiments.
Comparing the initial rates of degradation confirmed that γ-Glu-D-Cys is degraded more slowly (0.12±0.02 vs 0.22±0.02 mM/min, P=0.006). Values are mean±SD. N=3 separate experiments.
Values are mean±SD. N=3 separate experiments. * indicates significant difference at P<0.05.
As a measure of stability, the initial velocities of degradation for γ-Glu-Cys and γ-Glu-D-Cys were compared and found to be 0.22±0.03 vs. 0.12±0.02 (mM/min), respectively.
FIG. 11 is a graph showing the temporal comparison of degradation, oxidation and hydrolysis of γ-Glu-Cys. FIG. 12 is a graph showing the temporal comparison of degradation, oxidation, and hydrolysis of the analog γ-Glu-D-Cys. FIG. 13 is a graph comparing the degradation of γ-Glu-Cys and γ-Glu-D-Cys, as measured by the loss of intact peptide as a function of time of incubation. FIG. 14 is a graph comparing the hydrolysis of γ-Glu-Cys and γ-Glu-D-Cys, by appearance of cysteine and D-cysteine respectively, as a function of time. Mean±SE; * indicates significant difference at P<0.05. FIG. 15 is a graph comparing the oxidation of γ-Glu-Cys and γ-Glu-D-Cys, by appearance of oxidized γ-Glu-Cys and oxidized γ-Glu-D-Cys respectively, as a function of time. Mean±SE. * indicates P<0.05.

Setting [7] is: 0.39 mM in human plasma (90-99%), N=2, P=0.047.
[8] abbreviates: 0.78, 1.56, and 3.13 mM in human plasma (90-99%), N=3.

SMILES strings stand for the structures. “Also recorded” adds a separate entry of the source.

For `CN(C)c1nc(N)c(C(=O)N=C(N)N)nc1Cl` [dimethylamiloride], the “rise in intracellular sodium observed during reperfusion” value in data set [1] is “prevented; also recorded: inhibits the rise in intracellular sodium”. Moreover, the “rise in intracellular calcium observed during reperfusion” value in data set [2] is “prevented; also recorded: inhibits the rise in intracellular calcium”. Further, the “increase in caspase 3 activity” value in data set [3] is recorded as “inhibited”.

For `N[C@@H](CCC(=O)N[C@@H](CS)C(=O)O)C(=O)O` [γ-Glu-Cys, γ-glutamyl cysteine], the “antioxidant capacity (uric acid equivalents), γ-Glu-Cys vs γ-Glu-D-Cys” value in data set [4] is reported as “not to be significantly different from each other”. Moreover, the “LDH release (cellular damage)” value in data set [5] was “reduced LDH release; also recorded: cellular damage was significantly reduced”. In the data set with Human red blood cells, the “difference in cytoprotective effect, γ-Glu-Cys vs γ-Glu-D-Cys” value is reported as “no significant difference in their cytoprotective effect”; the spontaneous hemolysis result is reported as “significantly inhibit spontaneous hemolysis”; the “toxicity (increase of hemolysis)” value is on record as “not toxic under the experimental conditions”. In addition, the “antioxidant capacity, γ-Glu-Cys vs γ-Glu-D-Cys” value in data set [6] (setting [7]) is “marginal difference”. Further, the “antioxidant capacity, γ-Glu-Cys vs γ-Glu-D-Cys” value in data set [6] (setting [8]) is reported as “a significant difference was not detected”. The “intactness in serum for 1 minute” value in “in vitro” (1 min, 6.25 mM) is on record as “remains primarily intact for 1 minute in serum”. In “in vitro” (serum), this molecule registered a half-life at 6.25 mM of 11.3 ± 1.2 min.

Consider `N[C@@H](CCC(=O)N[C@H](CS)C(=O)O)C(=O)O` [γ-Glu-D-Cys, γ-glutamyl-D-cysteine], for which, in data set [4], the “antioxidant capacity (uric acid equivalents), γ-Glu-Cys vs γ-Glu-D-Cys” value is on record as “not to be significantly different from each other”. For the same molecule, in the data set with Human red blood cells, the “difference in cytoprotective effect, γ-Glu-Cys vs γ-Glu-D-Cys” value is “no significant difference in their cytoprotective effect”; the spontaneous hemolysis result is reported as “significantly inhibit spontaneous hemolysis”; the “toxicity (increase of hemolysis)” value is recorded as “not toxic under the experimental conditions”. Further, in data set [6] (setting [7]), the “antioxidant capacity, γ-Glu-Cys vs γ-Glu-D-Cys” value is “marginal difference”. Besides, the “antioxidant capacity, γ-Glu-Cys vs γ-Glu-D-Cys” value in data set [6] (setting [8]) is reported as “a significant difference was not detected”. The “initial rate (velocity) of degradation” value in the data set “in vitro” (6.25 mM) was determined as 0.12 ± 0.02 mM/min.

Source of the values: patent US9532961B2, “Method and kit for administering γ-glutamyl-D-cysteine for the prevention of reperfusion injury following ischemic stroke” (Rosalind Franklin University of Medicine and Science, priority 2005, dated 2017).
